Source: US9301933B2, “Compositions and methods for treating presbyopia, mild hyperopia, and irregular astigmatism” (ALLERGAN, INC., priority 2011, dated 2016)
“And” between values parts separate entries of the source, which are not always exact repeats. Equal values may be shown once.

Key:
[1] = tested on: eyes of presbyopic (emmetropic or slightly hyperopic) patients; assay: Unaided distance visual acuity (UDVA), Snellen chart; type: in vivo, human; conditions: Example 3
Protocol: (§1) A group of 10 patients (20 eyes) considered emmetropes or slightly hyperopic (Spherical equivalent from +0.88 D to −0.13 D with less than 1.00 D of astigmatism) was treated with a composition of the invention.
(§2) One drop containing 1% pilocarpine and 0.025% oxymetazoline w/w dissolved in a solution of 0.5% sodium chloride, with carboxymethyl cellulose as a viscosant and benzalkonium chloride as preservative were instilled once into the right eye, and the same solution containing 1% pilocarpine without oxymetazoline was instilled once into the left eye and the same measurements were taken one hour, four hours and six hours later. (Each patient acted as its own control) (Table 2). […]

[2] = tested on: eyes of presbyopic (emmetropic or slightly hyperopic) patients; assay: Unaided near visual acuity (UNVA) at 40 centimeters, hand-held Rosembaum chart, Jaeger notation; type: in vivo, human; design: key to 1 h UNVA: J1+ is fine “normal” near vision (equivalent to 20/20 in Snellen terms); J1 is good near vision (equivalent to 20/25 in Snellen terms); J2 and J3 are fair and functional near vision, respectively (equivalent to 20/30 and 20/40, respectively, in Snellen terms); J2 and J3 are fair and functional near vision, respectively (equivalent to 20/30 and 20/40, respectively, in Snellen terms); conditions: Example 3
Protocol: Measurements on the Jaeger scale, a near vision scale, are used and described herein. […]
as §1, §2

pupil of patients' eyes = assay: Pupillary diameter in medium lighting (mesopic) conditions, infrared camera device; type: in vivo, human; conditions: Example 3
Protocol: as §1, §2

patients' eyes = conditions: cited from earlier work
[3] = tested on: eyes of presbyopic (emmetropic or slightly hyperopic) patients; assay: Refractive power of each eye (sphere, cylinder, spherical equivalent); type: in vivo, human; conditions: Example 3
Excerpt: The following terms are ophthalmic terms commonly used by those of skill in the art. “OD” stands for oculus dexter and means right eye. “OS” stands for oculus sinister and means left eye. “UDVA” stands for unaided distance visual acuity. “UNVA” stands for unaided near visual acuity. “Sph” is the sphere, or the amount of magnification/demagnification that the eye needs to see properly. A negative sphere indicates myopia, and a positive sphere indicates hyperopia. “Cyl” is the cylinder, which is a measure of astigmatism. “Pre” indicates the condition of the eye prior to treatment, 1 h indicates the condition of the eye 1 hour after treatment, 4 h indicates the condition of the eye 4 hours after treatment, and 6 h indicates the condition of the eye 6 hours after treatment. “Sph Eq” is the spherical equivalent.
A group of 10 patients (20 eyes) considered emmetropes or slightly hyperopic (Spherical equivalent from +0.88 D to −0.50 D with less than 1.00 D of astigmatism) was treated with a composition of the invention.
Three drops containing 1% pilocarpine and 0.125% oxymetazoline w/w dissolved in a solution of 0.5% sodium chloride, with carboxymethyl cellulose as a viscosant and benzalkonium chloride as preservative were instilled into each eye three times separated 5 minutes each, and the same measurements were taken one hour, four hours and six hours later (Table 1). As shown in Table 1 and FIGS. 1-2, there was an average gain of 3.7 units of unaided near visual acuity while losing 0.7 lines of uncorrected distance visual acuity at one hour after instillation. […] The improvement in near vision was more pronounced in younger patients and the lack of detriment of the distance vision (FIG. 2) was more marked in hyperopic patients. […]
After a two-week washout period, five of the patients from example 1 were treated with a combination of 1% pilocarpine and 0.015% meloxicam dissolved in a solution of 0.5% sodium chloride in water plus carboxymethyl cellulose as viscosant and benzalkonium chloride as a preservative, and the same measurements in example 1 were taken at one hour, four hours, and eight hours later. […]

CC[C@@H]1C(=O)OC[C@@H]1Cc1cncn1C [Pilocarpine alone, pilocarpine]
decrease in distance vision, compared with pilocarpine + oxymetazoline ([1]; FIG. 4, at the 1 and 4 hour time points): more decrease in distance vision
1 h UDVA ([1]; one drop once, OD 1% pilocarpine + 0.025% oxymetazoline, OS 1% pilocarpine alone, single eyes, 1 h): 20/50 and 20/30 and 20/40
4 h UDVA ([1]; one drop once, OD 1% pilocarpine + 0.025% oxymetazoline, OS 1% pilocarpine alone, single eyes, 4 h): 20/40 and 20/20 and 20/30 and 20/25 and 20/50
6 h UDVA ([1]; one drop once, OD 1% pilocarpine + 0.025% oxymetazoline, OS 1% pilocarpine alone, single eyes, 6 h): 20/30 and 20/20 and 20/25
improvement in near vision, compared with pilocarpine + oxymetazoline ([2]; FIG. 3): smaller and tended to wear out earlier
1 h UNVA ([2]; one drop once, OD 1% pilocarpine + 0.025% oxymetazoline, OS 1% pilocarpine alone, single eyes of 10 patients, 1 h): J1 and J1+ and J2 and J3
1 h Pupil (pupil of patients' eyes; OD 1% pilocarpine + 0.025% oxymetazoline, OS 1% pilocarpine alone, single eyes, 1 h): 2.1 and 2.3 and 2.2 and 2.4 and 2.5
4 h Pupil (pupil of patients' eyes; OD 1% pilocarpine + 0.025% oxymetazoline, OS 1% pilocarpine alone, single eyes, 4 h): 2.7 and 2.8 and 2.5 and 2.9 and 2.4 and 3 and 2.6 and 3.1
6 h Pupil (pupil of patients' eyes; OD 1% pilocarpine + 0.025% oxymetazoline, OS 1% pilocarpine alone, single eyes, 6 h): 4.9 and 4.7 and 4.4 and 4.2 and 4.1
1 h Pupil, AVERAGE (pupil of patients' eyes; average per treatment, 1 h): 2.05
4 h Pupil, AVERAGE (pupil of patients' eyes; average per treatment, 4 h): 2.52
6 h Pupil, AVERAGE (pupil of patients' eyes; average per treatment, 6 h): 4.13
decrease in hyperopia (patients' eyes; one patient, 0.3% topical pilocarpine, U.S. Pat. Nos. 6,291,466 and 6,410,544): less than half
tolerability (patients' eyes; topical concentrations above 0.5%): not tolerated due to side effects such as red eyes, ocular pain, brow ache, and headache
effect in the accommodation of the eye (patients' eyes; topical concentrations below 0.5%): minimal effect
induced astigmatism [3]: seemed to induce more astigmatism
1 h Cyl, AVERAGE ([3]; average per treatment, 1 h): −0.59
1 h Sph Eq, AVERAGE ([3]; average per treatment, 1 h): −0.61
1 h Sph, AVERAGE ([3]; average per treatment, 1 h): −0.32
4 h Cyl, AVERAGE ([3]; average per treatment, 4 h): −0.59
4 h Sph Eq, AVERAGE ([3]; average per treatment, 4 h): −0.43
4 h Sph, AVERAGE ([3]; average per treatment, 4 h): −0.14
6 h Cyl, AVERAGE ([3]; average per treatment, 6 h): −0.43
6 h Sph Eq, AVERAGE ([3]; average per treatment, 6 h): 0.35
6 h Sph, AVERAGE ([3]; average per treatment, 6 h): 0.57

Brc1c(NC2=NCCN2)ccc2nccnc12 [brimonidine]
side effects of topical administration (patients' eyes; known to those in the art): lightheadedness, dizziness, dry mouth, tachycardia, and stomach upset

O=C(O)Cc1ccccc1Nc1c(Cl)cccc1Cl [diclofenac]
serious side effects (Congdon et al.) (patients' eyes; topical ophthalmic use): persistent epithelial defects, corneal melting, and corneal perforation
